“And” between values parts separate entries of the source, which are not always exact repeats. Equal entries are not always repeated.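 Assay format: 96-well plates, 48-hour exposure. GI50 = concentration required for 50% inhibition of growth. TGI marks complete inhibition of growth.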
Experiments:
Assay in all cases: NCI tumour cell line growth inhibition, 48 h
MDA-MB-231 breast = test system: MDA-MB-231 breast
NCI-H522 lung = test system: NCI-H522 lung
BT-549 breast = test system: BT-549 breast
HOP-62 NSCLC = test system: HOP-62 NSCLC
ACHN renal = test system: ACHN renal
SF-295 CNS = test system: SF-295 CNS
NCI/ADR-RES ovarian = test system: NCI/ADR-RES ovarian
CAKI-1 renal = test system: CAKI-1 renal
U251 CNS = test system: U251 CNS
NCI-H23 lung = test system: NCI-H23 lung

Structure (SMILES)	TGI (MDA-MB-231 breast)	TGI (NCI-H522 lung)	TGI (BT-549 breast)	TGI (HOP-62 NSCLC)	TGI (ACHN renal)	TGI (SF-295 CNS)	TGI (NCI/ADR-RES ovarian)	TGI (CAKI-1 renal)	TGI (U251 CNS)	TGI (NCI-H23 lung)	GI50 (MDA-MB-231 breast)	GI50 (NCI-H522 lung)	GI50 (BT-549 breast)	GI50 (HOP-62 NSCLC)	GI50 (ACHN renal)	GI50 (SF-295 CNS)	GI50 (NCI/ADR-RES ovarian)	GI50 (CAKI-1 renal)	GI50 (U251 CNS)	GI50 (NCI-H23 lung)
N=C1C(O)C2(I)c3ccccc3N3C(=N)C(O)C4c5ccccc5N1C4C32 (stereo not drawn)	67.8 µM	> 100 µM	> 100 µM	> 100 µM	> 100 µM	> 100 µM	> 100 µM	> 100 µM	43.9 µM	> 100 µM	–	–	–	–	–	–	–	–	–	–
C1CSCCCSCCCSCCCSCCCSCCCSCCCSCCCSC1	> 100 µM	> 100 µM	> 100 µM	> 100 µM	> 100 µM	> 100 µM	> 100 µM	> 100 µM	> 100 µM	> 100 µM	–	–	–	–	–	–	–	–	–	–
Nc1ncn([C@@H]2S[C@H](CO)[C@@H](O)[C@@H]2F)c(=O)n1	> 100 µM	> 100 µM	> 100 µM	> 100 µM	–	> 100 µM	> 100 µM	> 100 µM	> 100 µM	> 100 µM	> 100 µM	> 100 µM	54.7 µM	0.951 µM	0.297 µM	17.7 µM	0.285 µM	0.322 µM	13.9 µM	0.347 µM
c1ccc(NN(Cc2cnccn2)c2ccccc2)cc1	> 100 µM	> 100 µM	> 100 µM	> 100 µM	> 100 µM	> 100 µM	> 100 µM	> 100 µM	> 100 µM	> 100 µM	–	–	–	–	–	–	–	–	–	–
O=[N+]([O-])c1ccccc1N=Nc1c(O)[nH]c2cccc(C(F)(F)F)c12	91.3 µM	69.3 µM	> 100 µM	82.8 µM	40.1 µM	> 100 µM	> 100 µM	> 100 µM	> 100 µM	88 µM	–	–	–	–	–	–	–	–	–	–
O=c1oc2ccccc2c2c1Sc1ccccc1N2	> 100 µM	> 100 µM	> 100 µM	> 100 µM	> 100 µM	> 100 µM	> 100 µM	> 100 µM	> 100 µM	> 100 µM	–	–	–	–	–	–	–	–	–	–
CCSC1=NC2C(N(CC)C(=O)N2CC)N1/N=C/C=C/c1ccccc1[N+](=O)[O-] (stereo not drawn)	–	46.2 µM	4.23 µM	> 100 µM	> 100 µM	> 100 µM	> 100 µM	> 100 µM	> 100 µM	> 100 µM	0.312 µM	0.0395 µM	0.284 µM	0.313 µM	0.121 µM	0.0612 µM	0.209 µM	0.0647 µM	0.174 µM	0.351 µM
CCOc1ccccc1CCN=C1NC(=O)/C(=C/c2ccc3ncccc3c2)S1	18.6 µM	3.49 µM	> 12.7 µM	> 17.6 µM	> 25 µM	> 6 µM	> 22.7 µM	> 7.13 µM	> 25 µM	> 25 µM	4.24 µM	0.676 µM	1.74 µM	1.44 µM	1.45 µM	0.672 µM	1.28 µM	0.75 µM	1.2 µM	2.1 µM
Clc1ccc(-c2cn3ccnc3c(-c3ccc(Cl)cc3)n2)cc1	47 µM	> 100 µM	> 100 µM	> 100 µM	52.3 µM	91.7 µM	47.5 µM	46 µM	57.4 µM	80.1 µM	7.04 µM	> 100 µM	46 µM	31.4 µM	13 µM	11.1 µM	11.2 µM	4.23 µM	12.9 µM	24.3 µM
Cc1ccc2cnc(N)c(C#Cc3cc(C(=O)Nc4ccc(CN5CCN(C)CC5)c(C(F)(F)F)c4)cnc3C)c2c1	1.06 µM	1.36 µM	6.23 µM	2.76 µM	1.06 µM	1.75 µM	2.9 µM	1.1 µM	1.87 µM	1.82 µM	0.29 µM	0.588 µM	1.94 µM	0.887 µM	0.449 µM	0.771 µM	1.05 µM	0.476 µM	0.803 µM	0.727 µM
O=C(Nc1cccc(Cl)c1)Nn1cnnc1	> 100 µM	> 100 µM	> 100 µM	> 100 µM	> 100 µM	> 100 µM	> 100 µM	> 100 µM	> 100 µM	> 100 µM	> 50 µM	> 50 µM	> 50 µM	> 50 µM	> 50 µM	> 50 µM	> 50 µM	> 50 µM	> 50 µM	> 50 µM
CCCN1C(=O)NC(=O)C(CC)(N2C(=O)c3c(F)c(F)c(F)c(F)c3C2=O)C1=O (stereo not drawn)	4.59 µM	3.34 µM	5.29 µM	4.4 µM	3.69 µM	14.6 µM	10.5 µM	3.75 µM	3.76 µM	5.77 µM	1.99 µM	1.32 µM	2.19 µM	2.04 µM	1.9 µM	3.93 µM	2.91 µM	1.86 µM	1.41 µM	2.17 µM
Nc1nc2ccc(-c3nc4ccc5[nH]ncc5c4c4c3CCC4)cc2s1	11.5 µM	2.52 µM	10.2 µM	13.6 µM	6.58 µM	7.95 µM	18.8 µM	5.51 µM	12.7 µM	8.25 µM	0.511 µM	0.253 µM	0.365 µM	0.415 µM	0.321 µM	0.234 µM	0.302 µM	0.315 µM	0.241 µM	0.546 µM
O=C1OCC2=C1C(c1cccc(F)c1)c1cc3c(cc1N2CCO)OCO3 (stereo not drawn)	> 50 µM	29 µM	> 50 µM	> 50 µM	> 50 µM	> 50 µM	> 50 µM	> 50 µM	> 50 µM	> 50 µM	3.09 µM	0.259 µM	1.46 µM	2.19 µM	3.03 µM	1.2 µM	2.02 µM	1.24 µM	2.5 µM	3.96 µM
O=S(=O)(/N=c1\scc(-c2ccccc2)n1-c1ccccc1)c1ccc(N2N=C3c4ccccc4CC3C2c2ccc(Cl)cc2)cc1 (stereo not drawn)	> 100 µM	82.3 µM	> 100 µM	> 100 µM	> 100 µM	> 100 µM	> 100 µM	> 100 µM	75.5 µM	51.3 µM	70 µM	22.7 µM	41.4 µM	93.9 µM	40.1 µM	40.7 µM	51.5 µM	46.4 µM	26.1 µM	21 µM
CCOC(=O)Oc1c(OC)cc(C(=O)c2ccc(OC)c(O)c2OC)cc1OC	> 100 µM	1.99 µM	6.97 µM	> 100 µM	> 100 µM	49.7 µM	6.97 µM	> 100 µM	> 100 µM	> 100 µM	3.31 µM	0.311 µM	0.465 µM	0.962 µM	1.95 µM	0.524 µM	0.378 µM	1.81 µM	0.947 µM	2.29 µM
Cn1ncc(-c2ccc3c(=O)[nH]nc(CN)c3c2)c1-c1c(F)c(Cl)cc(OC2CC2)c1C#N	29.8 µM and 28.4 µM	27.4 µM and 23.1 µM	30.2 µM and 28.6 µM	33.7 µM and 27.8 µM	30.5 µM and 28.9 µM	28.4 µM and 27.2 µM	> 100 µM	24.1 µM and 23.6 µM	29.5 µM and 27.5 µM	32 µM and 29.6 µM	14.7 µM and 13.8 µM	12.7 µM and 9.22 µM	14.9 µM and 14.3 µM	16.1 µM and 13.4 µM	15.8 µM and 15.3 µM	14.3 µM and 13.3 µM	35 µM and 25.5 µM	11.6 µM and 11.2 µM	14.9 µM and 13.7 µM	15.3 µM and 14.3 µM

— PubChem BioAssay (NCI)
